Series [1] in a line: plasma pharmacokinetics (elimination half-life, Cmax, AUC versus dose). Conditions: dose range of 5 mg-500 mg.
Text: (§1) “PK” refers to the pharmacokinetic profile. Cmax is defined as the highest plasma drug concentration estimated during an experiment (ng/ml). Tmax is defined as the time when Cmax is estimated (min). AUC0-∞ is the total area under the plasma drug concentration-time curve, from drug administration until the drug is eliminated (ng·hr/ml or g*hr/ml). The area under the curve is governed by clearance. Clearance is defined as the volume of blood or plasma that is totally cleared of its content of drug per unit time (ml/min).
A short description of series [2]: in vivo. The following applies: plasma.
Text: as §1

One molecule from US20180221319A1, “METHODS OF TREATING SEIZURE DISORDERS AND PRADER-WILLI SYNDROME” (Ovid Therapeutics Inc., priority 2017, published 2018) can be followed below.

One may read the half-life as the time needed for the level to fall by half in the phase considered. A higher half-life goes with slow decline.

In the case of `N[C@H]1C[C@@H](C(=O)O)CC1=C(F)F`, in series [1], the AUCs dose proportionality entry is given as “greater than proportional increase” and the Cmax dose proportionality entry was “increases in a dose proportional manner”. In series [2], the half-life is 4 to 6 h.
